# Assays:
# Type in all cases: cell-based
# [1] = test system: P. aeruginosa MP-3; assay: MIC determination by CLSI broth dilution, P. aeruginosa MP-3; settings: for MIC: Pseudomonas aeruginosa, MP3, strain MP-3; for MIC P aeruginosa MP-3: strain MP-3
# [2] = test system: A. baumannii MP-15; assay: MIC determination by CLSI broth dilution, A. baumannii MP-15; settings: for MIC: Acinetobacter baumannii, MP15, strain MP-15, read-out: MIC A. baumanii MP-15; for MIC A. baumanii MP-15: strain MP-15
# [3] = test system: K. pneumoniae MP-648; assay: MIC determination by CLSI broth dilution, K. pneumoniae MP-648; settings: strain MP-648; for MIC: Klebsiella pneumoniae, MP648, CLSI broth dilution; for MIC K. pneumoniae MP-648: CLSI broth dilution
# [4] = test system: K. pneumoniae MP-546; assay: MIC determination by CLSI broth dilution, K. pneumoniae MP-546; settings: strain MP-546; for MIC: Klebsiella pneumoniae, MP546, CLSI broth dilution; for MIC K. pneumoniae MP-546: CLSI broth dilution
# [5] = test system: S. aureus MP-12; assay: microbe, parasite or virus in culture; settings: Staphylococcus aureus, MP12, read-out: MIC S. aureus MP-12
# [6] = test system: E. coli MP-4; assay: MIC determination by CLSI broth dilution, E. coli MP-4; settings: strain MP-4; for MIC: Escherichia coli, MP4, CLSI broth dilution; for MIC E. coli MP-4: CLSI broth dilution
Structure (SMILES),MIC [1] [µg/mL],MIC [2] [µg/mL],MIC [3] [µg/mL],MIC [4] [µg/mL],MIC [5] [µg/mL],MIC [6] [µg/mL],MIC P aeruginosa MP-3 [1],MIC A. baumanii MP-15 [2],MIC K. pneumoniae MP-648 [3],MIC K. pneumoniae MP-546 [4],MIC E. coli MP-4 [6]
CCCN1CC(C[C@@H]2COC(=O)C(C)(C)C(=O)[C@H](C)[C@@H](O[C@@H]3O[C@H](C)C[C@H](N(C)C)[C@H]3O)[C@](C)(OC)C[C@@H](C)CN2C)C1 [Compound 1],> 32,> 32,> 32,4 to 32,> 32,< 4,–,–,–,–,–
C=C(C[C@@H]1COC(=O)C(C)(C)C(=O)[C@H](C)[C@@H](O[C@@H]2O[C@H](C)C[C@H](N(C)C)[C@H]2O)[C@](C)(OC)C[C@@H](C)CN1C)CN(CCC)CCC [Compound 2],> 32,> 32,> 32,> 32,> 32,4 to 32,–,–,–,–,–
CCN(C)CC[C@@H](O)[C@@H]1COC(=O)C(C)(C)C(=O)[C@H](C)[C@@H](O[C@@H]2O[C@H](C)C[C@H](N(C)C)[C@H]2O)[C@](C)(OC)C[C@@H](C)CN1C [Compound 3],> 32,> 32,< 4,< 4,4 to 32,< 4,–,–,–,–,–
"CO[C@]1(C)C[C@@H](C)CN(C)[C@@H](CCCO)COC(=O)C(C)(C)C(=O)[C@H](C)[C@H]1O[C@@H]1O[C@H](C)C[C@H](N(C)C)[C@H]1O [Compound 4, (3S,6R,8R,9R,10R)-9-(((2S,3R,4S,6R)-4-(dimethylamino)-3-hydroxy-6-methyltetrahydro-2H-pyran-2-yl)oxy)-3-(3-hydroxypropyl)-8-methoxy-4,6,8,10,12,12-hexamethyl-1-oxa-4-azacyclotridecane-11,13-dione]",> 32,> 32,4 to 32,4 to 32,> 32,< 4,–,–,–,–,–
"CO[C@]1(C)C[C@@H](C)CN(C)[C@@H](CCCN(C)C(C)(C)C)COC(=O)C(C)(C)C(=O)[C@H](C)[C@H]1O[C@@H]1O[C@H](C)C[C@H](N(C)C)[C@H]1O [Compound 7, (3S,6R,8R,9R,10R)-3-(3-(tert-butyl(methyl)amino)propyl)-9-(((2S,3R,4S,6R)-4-(dimethylamino)-3-hydroxy-6-methyltetrahydro-2H-pyran-2-yl)oxy)-8-methoxy-4,6,8,10,12,12-hexamethyl-1-oxa-4-azacyclotridecane-11,13-dione]",> 32,> 32,< 4,4 to 32,4 to 32,< 4,–,–,–,–,–
"CO[C@]1(C)C[C@@H](C)CN(CC(C)C)[C@@H](CCCN(C)C(C)C)COC(=O)C(C)(C)C(=O)[C@H](C)[C@H]1O[C@@H]1O[C@H](C)C[C@H](N(C)C)[C@H]1O [Compound 8, (3S,6R,8R,9R,10R)-9-(((2S,3R,4S,6R)-4-(dimethylamino)-3-hydroxy-6-methyltetrahydro-2H-pyran-2-yl)oxy)-4-isobutyl-3-(3-(isopropyl(methyl)amino)propyl)-8-methoxy-6,8,10,12,12-pentamethyl-1-oxa-4-azacyclotridecane-11,13-dione]",> 32,> 32,4 to 32,4 to 32,< 4,< 4,–,–,–,–,–
CO[C@]1(C)C[C@@H](C)CN(C)[C@H]([C@@H](O)C2CCN(CC3CC3)CC2)COC(=O)C(C)(C)C(=O)[C@H](C)[C@H]1O[C@@H]1O[C@H](C)C[C@H](N(C)C)[C@H]1O [Compound 28],–,–,–,–,–,–,+ (values greater than 32 mg/L),+ (values greater than 32 mg/L),+ (values greater than 32 mg/L),+ (values greater than 32 mg/L),+ (values greater than 32 mg/L)
"CO[C@]1(C)C[C@@H](C)CN(C)[C@H](C[C@H]2C[C@H](N(C)CC(C)C)C2)COC(=O)C(C)(C)C(=O)[C@H](C)[C@H]1O[C@@H]1O[C@H](C)C[C@H](N(C)C)[C@H]1O [Compound 134, (3R,6R,8R,9R,10R)-9-(((2S,3R,4S,6R)-4-(dimethylamino)-3-hydroxy-6-methyltetrahydro-2H-pyran-2-yl)oxy)-3-(((1r,3S)-3-(isobutyl(methyl)amino)cyclobutyl)methyl)-8-methoxy-4,6,8,10,12,12-hexamethyl-1-oxa-4-azacyclotridecane-11,13-dione]",–,–,–,–,–,–,+ (values greater than 32 mg/L),+ (values greater than 32 mg/L),+++ (values less than or equal to 4 mg/L),+++ (values less than or equal to 4 mg/L),+++ (values less than or equal to 4 mg/L)
C=C(C)C[C@]1(C)C(=O)OC[C@@H](CC2CCN(CCCCCCC)CC2)N(C)C[C@H](C)C[C@@](C)(OC)[C@H](O[C@@H]2O[C@H](C)C[C@H](N(C)C)[C@H]2O)[C@@H](C)C1=O [Compound 175],–,–,–,–,–,–,+ (values greater than 32 mg/L),+ (values greater than 32 mg/L),+ (values greater than 32 mg/L),++ (values of greater than 4 mg/L and less than or equal to 32 mg/L),+++ (values less than or equal to 4 mg/L)
CCN1C[C@H](C)C[C@@](C)(OC)[C@H](O[C@@H]2O[C@H](C)C[C@H](N(C)C)[C@H]2O)[C@@H](C)C(=O)C(C)(C)C(=O)OC[C@H]1[C@H](O)CCN(C)C(C)C [Compound 224],> 32,> 32,4 to 32,–,4 to 32,< 4,–,–,–,–,–
CCN1C[C@H](C)C[C@@](C)(OC)[C@H](O[C@@H]2O[C@H](C)C[C@H](N(C)C)[C@H]2O)[C@@H](C)C(=O)C(C)(C)C(=O)OC[C@H]1[C@H](O)CCN(C)CCO [Compound 225],> 32,> 32,4 to 32,–,4 to 32,< 4,–,–,–,–,–
CCN1C[C@H](C)C[C@@](C)(OC)[C@H](O[C@@H]2O[C@H](C)C[C@H](N(C)C)[C@H]2O)[C@@H](C)C(=O)C(C)(C)C(=O)OC[C@H]1[C@H](O)CCN(C1CC1)C1Cc2ccccc2C1 [Compound 226],> 32,> 32,4 to 32,–,4 to 32,< 4,–,–,–,–,–
CO[C@]1(C)C[C@@H](C)CN(C)[C@H]([C@](C)(O)CCN2CCCC2)COC(=O)C(C)(C)C(=O)[C@H](C)[C@H]1O[C@@H]1O[C@H](C)C[C@H](N(C)C)[C@H]1O [Compound 227],> 32,> 32,> 32,–,4 to 32,4 to 32,–,–,–,–,–
CO[C@]1(C)C[C@@H](C)CN(C)[C@H]([C@](C)(O)CCN(C)CCO)COC(=O)C(C)(C)C(=O)[C@H](C)[C@H]1O[C@@H]1O[C@H](C)C[C@H](N(C)C)[C@H]1O [Compound 228],> 32,> 32,< 4,–,> 32,4 to 32,–,–,–,–,–
CCCN(CCC)CC[C@@](C)(O)[C@@H]1COC(=O)C(C)(C)C(=O)[C@H](C)[C@@H](O[C@@H]2O[C@H](C)C[C@H](N(C)C)[C@H]2O)[C@](C)(OC)C[C@@H](C)CN1C [Compound 229],> 32,> 32,> 32,–,4 to 32,4 to 32,–,–,–,–,–

# From patent US12552825B2 (Zikani Therapeutics, Inc., priority 2019, dated 2026)
